According to patent US5268308A, “Immunoassay for pyridostigmine” (priority 1989, dated 1993):

Legend:
[1] = Pyridostigmine in various rat organs after intramuscular dose, by RIA; format: in vivo; details: 1.0 mg/kg i.m.
Protocol: To further validate the RIA and the antibody specificity of the present invention, additional rat studies were conducted. Male rats were housed two per cage at 23° C. with a twelve hour on-off light cycle. The animals were given food and water ad libitum. After sixty days, food was withheld for twelve hours. Then pyridostigmine was administered (1.0 mg. of pyridostigmine bromide in physiologic saline/Kg) intramuscularly to the rats weighing between 450 and 550 grams.
Groups of three animals were sacrificed by using inhalation anesthetic, Fluothane (0.01% thymol, w/w; and 0.00025% ammonia, w/w) Ayerst Laboratories, New York, N.Y. at various times after dosing, namely at 0, 5, 10, 15, 30, 60 minutes and at 2, 3, 4 and 6 hours. Blood was collected via heart puncture, and serum was separated by centrifugation at 2000 xg for 20 minutes. Table 4 gives the pyridostigmine level in the plasma of three male rats for each time interval as determined by the RIA of the present invention.
The brain, fat, heart, muscle and spleen were also removed from the sacrificed rats. The organs from each time period were pooled and kept frozen at -85° C. until analyzed. In preparing tissue homogenates for analysis, tissue samples were first brought to room temperature. Next the tissue samples were washed with ice-cold saline, blotted dry, weighed and homogenized in an ice-cold solution ([…], 0.5%. Triton X, 150 mM sodium chloride, pH 7.4; 2:1, v/w) with a Biohomogenizer (from Biospect Products Inc., Bartlesville, OK), cooling the tubes with ice as needed. The suspension was centrifuged at 15,000 ×g for 30 minutes at […] The supernatant was collected, and the pellet was mixed once more (1:1, w/v) with the solution, and centrifuged as described earlier. The supernatants for like samples were combined. The RIA of the present invention was then followed to determine the amounts of pyridostigmine in the various rat organs. The results of the RIA are given in.

central nervous system = details: moderate doses; cited from earlier work

With `CN(C)C(=O)Oc1ccc[n+](C)c1` [Pyridostigmine] the “Pyridostigmine in rat organs” value ([1]; Brain, 1 HR) was 5.06 ng/mg protein, the “Pyridostigmine in rat organs” value ([1]; Brain, 2 HR) was 4.63 ng/mg protein and the “Pyridostigmine in rat organs” value ([1]; Brain, 3 HR) was 3.92 ng/mg protein. The “Pyridostigmine in rat organs” value ([1]; Brain, 4 HR) was 3.55 ng/mg protein, the “Pyridostigmine in rat organs” value ([1]; Brain, 6 HR) was 2.62 ng/mg protein and the “Pyridostigmine in rat organs” value ([1]; Brain, 5 min) was 3.63 ng/mg protein. For the same compound, the “Pyridostigmine in rat organs” value ([1]; Brain, 10 min) was 7.65 ng/mg protein, the “Pyridostigmine in rat organs” value ([1]; Brain, 15 min) was 6.32 ng/mg protein and the “Pyridostigmine in rat organs” value ([1]; Brain, 30 min) was 6.11 ng/mg protein. For the same compound, the “Pyridostigmine in rat organs” value ([1]; Fat, 1 HR) was 8.69 ng/mg protein, the “Pyridostigmine in rat organs” value ([1]; Fat, 2 HR) was 6.46 ng/mg protein and the “Pyridostigmine in rat organs” value ([1]; Fat, 3 HR) was 5.73 ng/mg protein. The “Pyridostigmine in rat organs” value ([1]; Fat, 4 HR) was 3.26 ng/mg protein, the “Pyridostigmine in rat organs” value ([1]; Fat, 6 HR) was 2.91 ng/mg protein and the “Pyridostigmine in rat organs” value ([1]; Fat, 5 min) was 5.98 ng/mg protein. For the same compound, the “Pyridostigmine in rat organs” value ([1]; Fat, 10 min) was 8.11 ng/mg protein, the “Pyridostigmine in rat organs” value ([1]; Fat, 15 min) was 15.37 ng/mg protein and the “Pyridostigmine in rat organs” value ([1]; Fat, 30 min) was 9.05 ng/mg protein. The “Pyridostigmine in rat organs” value ([1]; Heart, 1 HR) was 78.29 ng/mg protein, the “Pyridostigmine in rat organs” value ([1]; Heart, 2 HR) was 52.4 ng/mg protein and the “Pyridostigmine in rat organs” value ([1]; Heart, 3 HR) was 48.57 ng/mg protein. The “Pyridostigmine in rat organs” value ([1]; Heart, 4 HR) was 23.11 ng/mg protein, the “Pyridostigmine in rat organs” value ([1]; Heart, 6 HR) was 8.52 ng/mg protein and the “Pyridostigmine in rat organs” value ([1]; Heart, 5 min) was 43.78 ng/mg protein. For the same compound, the “Pyridostigmine in rat organs” value ([1]; Heart, 10 min) was 57.5 ng/mg protein, the “Pyridostigmine in rat organs” value ([1]; Heart, 15 min) was 70.4 ng/mg protein and the “Pyridostigmine in rat organs” value ([1]; Heart, 30 min) was 75.96 ng/mg protein. For the same compound, the “Pyridostigmine in rat organs” value ([1]; Muscle, 1 HR) was 9.46 ng/mg protein, the “Pyridostigmine in rat organs” value ([1]; Muscle, 2 HR) was 4.99 ng/mg protein and the “Pyridostigmine in rat organs” value ([1]; Muscle, 3 HR) was 4.8 ng/mg protein. The “Pyridostigmine in rat organs” value ([1]; Muscle, 4 HR) was 3.94 ng/mg protein, the “Pyridostigmine in rat organs” value ([1]; Muscle, 6 HR) was 3.08 ng/mg protein and the “Pyridostigmine in rat organs” value ([1]; Muscle, 5 min) was 9.63 ng/mg protein. For the same compound, the “Pyridostigmine in rat organs” value ([1]; Muscle, 10 min) was 13.57 ng/mg protein, the “Pyridostigmine in rat organs” value ([1]; Muscle, 15 min) was 11.67 ng/mg protein and the “Pyridostigmine in rat organs” value ([1]; Muscle, 30 min) was 10.08 ng/mg protein. The “Pyridostigmine in rat organs” value ([1]; Spleen, 1 HR) was 2.48 ng/mg protein, the “Pyridostigmine in rat organs” value ([1]; Spleen, 2 HR) was 2.40 ng/mg protein and the “Pyridostigmine in rat organs” value ([1]; Spleen, 3 HR) was 2.03 ng/mg protein. For the same compound, the “Pyridostigmine in rat organs” value ([1]; Spleen, 4 HR) was 1.92 ng/mg protein, the “Pyridostigmine in rat organs” value ([1]; Spleen, 6 HR) was 1.86 ng/mg protein and the “Pyridostigmine in rat organs” value ([1]; Spleen, 5 min) was 10.35 ng/mg protein. The “Pyridostigmine in rat organs” value ([1]; Spleen, 10 min) was 6.26 ng/mg protein, the “Pyridostigmine in rat organs” value ([1]; Spleen, 15 min) was 6.15 ng/mg protein and the “Pyridostigmine in rat organs” value ([1]; Spleen, 30 min) was 4.44 ng/mg protein. For the same compound, the “effect on the central nervous system” value (central nervous system) was “usually do not effect the central nervous system”.
